Data from PMC5884652, “New antimicrobial peptide kills drug-resistant pathogens without detectable resistance” (Oncotarget, 2018).
Values after ≈ are worked out from the molar mass of the structure shown. Like-named read-outs stand apart in the source and are kept apart here. Ends that are not written are not given here.

How the values were obtained:
S. aureus ATCC 29213 [1] = test: microbe, parasite or virus in culture; conditions: for Increase of MIC: relative to first passage; for MIC: Staphylococcus aureus
Procedure: To determine the MICs of CSP-4, a single colony of S. aureus ATCC 29213 was cultured at 37° C in tryptic soy broth, as well as daptomycin and linezolid, which served as commercial antibiotic positive controls. […] For each agent, the MIC was determined daily for 29 days at pH 5.5 and/or for 8 days at pH 7.4 using cells from wells containing half the MIC (1/2 MIC well). […] All MICs were determined in duplicate.

P. aeruginosa 3543 = test: microbe, parasite or virus in culture; format: cell-based, Pseudomonas aeruginosa; conditions: pH (I or II) not given; 10 mM sodium phosphate buffer, 10% LB; 37° C, 24 h; mean of 3 experiments
From the text: (§1) The method for peptide synthesis has been described in detail previously. E. coli ATCC 25922 (LB media), P. aeruginosa ATCC 15692 (NB+0.5% NaCl media), Listeria monocytogenes ATCC 3710 (LB media), Staphylococcus epidermidis ATCC 12228 (LB media), and S. aureus ATCC 29213 (TSB media) were obtained from the American Type Culture Collection (Manassas, VA, USA). Bacillus subtilis KCTC 1998 (LB media), Salmonella typhimurium KCTC 1926 (NB media), and Proteus vulgaris KCTC 2433 (NB media) were obtained from the Korean Collection for Type Cultures (Jeollabuk-do, Korea). E. coli CCARM 1238 was received from the Culture Collection of Antibiotic Resistant Microbes at Seoul Women’s University, Korea. Drug-resistant P. aeruginosa 3543, 3904, 3547, and 4007 and S. aureus 3126, 0027, 5157, 1635, 4761, 5159, 3359, 2122, 1630, 1870, 3511, 5156, and 3518 were resistant strains isolated from patients with otitis media in a Chonnam National University’s hospital.
(§2) The antibacterial activities of AMPs (melittin, clavaspirin, and its analogs) and conventional antibiotic drugs (erythromycin, gentamicin, ampicillin, and piperacidin) were determined using microdilution assays. Bacterial cells were cultured at 37° C in appropriate culture media at pH 5.5 or pH 7.4 until collection during the mid-log phase and suspended in 10 mM sodium phosphate buffer (pH 5.5 or pH 7.4) supplemented with 10% culture medium. Thereafter, 2× serial dilutions of each peptide (0.25–128 μM) or antibiotic (0.25–256 μM) were added to sterile 96-well plates, and aliquots of cell suspension (5 × 10^5 colony forming units (cfu)/mL) were seeded into each well. The samples were then incubated at 37° C for 24 h. At the end of the incubation, the minimum inhibitory concentrations (MICs) of the peptides were determined using a VERSA Max microplate reader (Molecular Devices Co., Sunnyvale, CA, USA) at a wavelength of 600 nm. […] MIC values were calculated as the mean of 3 independent experiments conducted in triplicate.

P. aeruginosa 3547 = test: microbe, parasite or virus in culture; format: cell-based, Pseudomonas aeruginosa; conditions: pH (I or II) not given; 10 mM sodium phosphate buffer, 10% LB; 37° C, 24 h; mean of 3 experiments
From the text: as §1, §2

P. aeruginosa 3904 = test: microbe, parasite or virus in culture; format: cell-based, Pseudomonas aeruginosa; conditions: pH (I or II) not given; 10 mM sodium phosphate buffer, 10% LB; 37° C, 24 h; mean of 3 experiments
From the text: as §1, §2

P. aeruginosa 4007 = test: microbe, parasite or virus in culture; format: cell-based, Pseudomonas aeruginosa; conditions: pH (I or II) not given; 10 mM sodium phosphate buffer, 10% LB; 37° C, 24 h; mean of 3 experiments
From the text: as §1, §2

E. coli ATCC 25922 = format: cell-based, Escherichia coli; conditions: 10 mM sodium phosphate buffer, 10% LB, 37° C, 24 h, mean of 3 experiments
From the text: as §1, §2

P. aeruginosa ATCC 15692 = format: cell-based, Pseudomonas aeruginosa; conditions: 10 mM sodium phosphate buffer, 10% LB, 37° C, 24 h, mean of 3 experiments
From the text: as §1, with “E. coli ATCC 25922 (LB media), P. aeruginosa ATCC 15692 (NB+0.5% NaCl media), Listeria monocytogenes ATCC 3710 (LB media), Staphylococcus epidermidis ATCC 12228 (LB media), and S. aureus ATCC 29213 (TSB media) were obtained from the American Type Culture Collection (Manassas, VA, USA).” left out
as §2, with “Bacterial cells were cultured at 37° C in appropriate culture media at pH 5.5 or pH 7.4 until collection during the mid-log phase and suspended in 10 mM sodium phosphate buffer (pH 5.5 or pH 7.4) supplemented with 10% culture medium.” left out

[2] = test system: Bacillus subtilis KCTC 1998; format: cell-based; conditions: 10 mM sodium phosphate buffer, 10% LB, 37° C, 24 h, mean of 3 experiments
From the text: as §1, §2

[3] = test system: Listeria monocytogenes ATCC 3710; format: cell-based; conditions: 10 mM sodium phosphate buffer, 10% LB, 37° C, 24 h, mean of 3 experiments
From the text: as §1, §2

[4] = test system: Staphylococcus epidermidis ATCC 12228; format: cell-based; conditions: 10 mM sodium phosphate buffer, 10% LB, 37° C, 24 h, mean of 3 experiments
From the text: as §1, §2

S. aureus ATCC 29213 [5] = format: cell-based, Staphylococcus aureus; conditions: 10 mM sodium phosphate buffer, 10% LB, 37° C, 24 h, mean of 3 experiments
From the text: as §1, with “E. coli ATCC 25922 (LB media), P. aeruginosa ATCC 15692 (NB+0.5% NaCl media), Listeria monocytogenes ATCC 3710 (LB media), Staphylococcus epidermidis ATCC 12228 (LB media), and S. aureus ATCC 29213 (TSB media) were obtained from the American Type Culture Collection (Manassas, VA, USA).” left out
as §2

[6] = test system: Proteus vulgaris KCTC 2433; format: cell-based; conditions: 10 mM sodium phosphate buffer, 10% LB, 37° C, 24 h, mean of 3 experiments
From the text: as §1, with “Bacillus subtilis KCTC 1998 (LB media), Salmonella typhimurium KCTC 1926 (NB media), and Proteus vulgaris KCTC 2433 (NB media) were obtained from the Korean Collection for Type Cultures (Jeollabuk-do, Korea).” left out
as §2

[7] = test system: Salmonella typhimurium KCTC 1926; format: cell-based; conditions: 10 mM sodium phosphate buffer, 10% LB, 37° C, 24 h, mean of 3 experiments
From the text: as §1, with “Bacillus subtilis KCTC 1998 (LB media), Salmonella typhimurium KCTC 1926 (NB media), and Proteus vulgaris KCTC 2433 (NB media) were obtained from the Korean Collection for Type Cultures (Jeollabuk-do, Korea).” left out
as §2

[8] = test system: human red blood cells (hRBCs); test: Hemolysis; format: cell-based; conditions: PBS buffer containing 8% hRBCs, 1 h, 37° C, absorbance 414 nm, triplicate
Procedure: Fresh human red blood cells (hRBCs) from healthy donors were centrifuged at 800 × g and washed with phosphate-buffered saline (PBS) until the supernatant was clear. Twofold serial dilutions of the peptides in PBS were added to a 96-well plate, after which the hRBCs were added to obtain a final concentration of 8% (vol/vol). The samples were then incubated with mild agitation for 1 h at 37° C. The samples were then centrifuged at 800 × g for 10 min, and the absorbance of the supernatant was measured at 414 nm. All the measurements were performed in triplicate, and the percentages of hemolysis were calculated using equation 1: % hemolysis=[(A414 in peptide solution−A414 in PBS)/(A414 in […]−A414 in PBS)]×100 (1)
Where 100% hemolysis was defined as the absorbance measured from hRBCs exposed to 1% Triton X-100 and zero hemolysis was characterized using hRBCs alone in PBS [40].

[9] = test system: HaCaT (human keratinocyte) cells; test: Cytotoxicity, MTT assay; format: cell-based; conditions: DMEM containing 10% FBS and 1% PS, 24 h, 37° C
Procedure: To examine the cytotoxic effects of the peptides, HaCaT (human keratinocyte) cells were cultured in Dulbecco’s modified Eagle’s medium (DMEM) supplemented with antibiotics (100 U/ml penicillin and 100 μg/ml streptomycin) and 10% fetal calf serum at 37° C in a humidified chamber under a 5% CO2 atmosphere. Growth inhibition was evaluated using 3-(4, 5-dimethylthizol-2-yl)-2, 5-diphenyltetrazolium bromide (MTT) assays to measure cell viability. After cells were seeded into a 96-well plate at a density of 2 × 10^4/well and incubated for 24 h, twofold serial dilutions of each peptide in DMEM were added to the wells, and the cells were incubated for an additional 24 h at 37° C. Thereafter, 10 μl of MTT (5 mg/ml) was added to each well, and the plate was incubated for 4 h. The supernatants were then removed, and 50 μl of DMSO was added to each well to dissolve any remaining precipitate. Finally, the absorbance at 570 nm was measured using a microtiter reader.

[10] = after 8 passages at pH 7.4, 10 mM sodium phosphate buffer, 10% tryptic soy broth

**Q.** For `CCCCCCCCCC(=O)N[C@@H](Cc1c[nH]c2ccccc12)C(=O)N[C@H](CC(N)=O)C(=O)N[C@@H](CC(=O)O)C(=O)N[C@@H]1C(=O)NCC(=O)N[C@@H](CCCN)C(=O)N[C@@H](CC(=O)O)C(=O)N[C@H](C)C(=O)N[C@@H](CC(=O)O)C(=O)NCC(=O)N[C@H](CO)C(=O)N[C@@H]([C@H](C)CC(=O)O)C(=O)N[C@@H](CC(=O)c2ccccc2N)C(=O)O[C@@H]1C` [daptomycin], which “Increase of MIC” value (S. aureus ATCC 29213 [1]; [10]) is on record?
**A.** approximately 1000 ×

**Q.** What about the “Increase of MIC” value (S. aureus ATCC 29213 [1]; after 29 passages at pH 5.5) of the same compound?
**A.** over 8000 ×

**Q.** And the “Increase of MIC following prolonged exposure” value (S. aureus ATCC 29213 [1]; following prolonged exposure)?
**A.** ≤ 8000 fold

**Q.** What about the “MIC at start of resistance induction” value (S. aureus ATCC 29213 [1]; pH 5.5) of the same compound?
**A.** 0.25 µM

**Q.** What about the “Passages over which resistance was induced” value (S. aureus ATCC 29213 [1]; pH 5.5) of the same compound?
**A.** 24 passages

**Q.** What about the “MIC at start of resistance induction” value (S. aureus ATCC 29213 [1]; pH 7.4) of the same compound?
**A.** 4 µM

**Q.** What about the “Passages after which resistance was induced” value (S. aureus ATCC 29213 [1]; pH 7.4) of the same compound?
**A.** 5 passages

**Q.** With `CC(=O)NC[C@H]1CN(c2ccc(N3CCOCC3)c(F)c2)C(=O)O1` [linezolid] as the compound, how does the MIC (S. aureus ATCC 29213 [1]; ATCC29213, pH 5.5, read-out: MIC at start of resistance induction) read?
**A.** 4 µM (≈ 1.35 µg/mL)

**Q.** And the MIC (S. aureus ATCC 29213 [1]; ATCC29213, pH 7.4, read-out: MIC at start of resistance induction)?
**A.** 8 µM (≈ 2.7 µg/mL)

**Q.** And the “Increase of MIC” value (S. aureus ATCC 29213 [1]; [10])?
**A.** approximately 200 ×

**Q.** What about the “Passages over which resistance was induced” value (S. aureus ATCC 29213 [1]; pH 5.5) of the same compound?
**A.** 24 passages

**Q.** What about the “Passages after which resistance was induced” value (S. aureus ATCC 29213 [1]; pH 7.4) of the same compound?
**A.** 5 passages

**Q.** Which results are given for `CCN1CCN(C(=O)N[C@@H](C(=O)N[C@@H]2C(=O)N3[C@@H]2SC(C)(C)[C@@H]3C(=O)O)c2ccccc2)C(=O)C1=O` [piperacidin]?
**A.** MIC (P. aeruginosa 3543): >800 µM; MIC (P. aeruginosa 3547): 200 µM (≈ 104 µg/mL); MIC (P. aeruginosa 3904): >800 µM; MIC (P. aeruginosa 4007): >800 µM

**Q.** Which results are given for “FLRFIGSVIHGIGHLVHHIGVAL-NH2 [Clavaspirin]”?
**A.** MIC, E. coli (E. coli ATCC 25922; pH 5.5 (I)): 2 µM; MIC, E. coli (E. coli ATCC 25922; pH 7.4 (II)): 64 µM; MIC, P. aeruginosa (P. aeruginosa ATCC 15692; pH 5.5 (I)): 32 µM; MIC, P. aeruginosa (P. aeruginosa ATCC 15692; pH 7.4 (II)): >64 µM; MIC, B. subtilis ([2]; pH 5.5 (I)): 16 µM; MIC, B. subtilis ([2]; pH 7.4 (II)): 64 µM; MIC, L. monocytogenes ([3]; pH 5.5 (I)): 16 µM; MIC, L. monocytogenes ([3]; pH 7.4 (II)): 64 µM; MIC, S. epidermidis ([4]; pH 5.5 (I)): 4 µM; MIC, S. epidermidis ([4]; pH 7.4 (II)): 32 µM; MIC, S. aureus (S. aureus ATCC 29213 [5]; pH 5.5 (I)): 16 µM; MIC, S. aureus (S. aureus ATCC 29213 [5]; pH 7.4 (II)): 64 µM; MIC, P. vulgaris ([6]; pH 5.5 (I)): 8 µM; MIC, P. vulgaris ([6]; pH 7.4 (II)): 64 µM; MIC, S. typhimurium ([7]; pH 5.5 (I)): 32 µM; MIC, S. typhimurium ([7]; pH 7.4 (II)): 64 µM; HC10 (hemolytic activity) [8]: 37; HC50 (hemolytic activity) [8]: 64; EC10 (effective concentration in HaCaT cells) [9]: 66
